The record followed here is patent US6376521B1, “A3 adenosine receptor antagonists” (The United States of America as represented by the …, priority 1998, dated 2002).

SMILES strings stand for the structures. Like-named read-outs stand apart in the source and are kept apart here. A value given as a limit tells only on which side of the number the result lay.

The target of one assay is T1, A1 adenosine receptors (Rattus norvegicus, UniProt P25099).
T1 construct: from tissue
T1 sequence (P25099 1-326): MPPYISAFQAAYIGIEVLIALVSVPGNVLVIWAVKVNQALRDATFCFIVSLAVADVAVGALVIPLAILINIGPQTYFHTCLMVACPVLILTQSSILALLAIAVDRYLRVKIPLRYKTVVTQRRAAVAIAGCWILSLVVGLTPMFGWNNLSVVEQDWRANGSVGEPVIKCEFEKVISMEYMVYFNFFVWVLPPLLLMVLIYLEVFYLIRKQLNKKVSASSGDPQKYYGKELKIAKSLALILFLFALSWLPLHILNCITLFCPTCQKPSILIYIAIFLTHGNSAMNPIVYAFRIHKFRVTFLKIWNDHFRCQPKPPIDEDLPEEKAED
In words: Displacement of specific [3H]R-PIA binding in rat brain membranes. The note with it: for inhibition at 100 µM: read-out: rA1 % inhibition (percentage of specific binding displaced); for Ki: [3H]R-PIA, rat brain membranes, n = 3-5, read-out: rA1 Ki ± S.E.M.

The target of the next assay is T2, A2A adenosine receptors (Rattus norvegicus, UniProt P30543).
T2 construct: from tissue
In words: Displacement of specific [3H]CGS 21680 binding in rat striatal membranes. The settings on record: for inhibition at 100 µM: read-out: rA2A % inhibition (percentage of specific binding displaced); for Ki: [3H]CGS 21680, rat striatal membranes, n = 3-6, read-out: rA2A Ki ± S.E.M.

For the next assay, the target named is T3, human A3 receptors (Homo sapiens, UniProt P0DMS8).
T3 construct: expressed in transfected cells
T3 sequence (P0DMS8 1-318): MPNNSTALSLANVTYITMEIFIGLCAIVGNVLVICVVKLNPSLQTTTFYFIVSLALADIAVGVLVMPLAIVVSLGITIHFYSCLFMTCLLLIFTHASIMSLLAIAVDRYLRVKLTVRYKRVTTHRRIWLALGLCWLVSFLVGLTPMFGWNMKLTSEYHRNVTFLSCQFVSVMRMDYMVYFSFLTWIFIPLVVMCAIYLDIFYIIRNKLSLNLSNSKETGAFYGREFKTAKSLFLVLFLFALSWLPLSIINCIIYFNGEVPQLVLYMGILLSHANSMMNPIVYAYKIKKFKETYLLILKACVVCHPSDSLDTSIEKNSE
In words: Displacement of specific [125I]AB-MECA binding at human A3 receptors expressed in HEK cells, in membranes. The settings on record: for Ki: [125I]AB-MECA, HEK cell membranes, n = 3-4, read-out: hA3 Ki ± S.E.M.; for rA1/hA3: ratio of affinities rat A1 vs human A3.

The target in another assay is T4, rat A3 receptors (Rattus norvegicus, UniProt P28647).
T4 construct: expressed in transfected cells
T4 sequence (P28647 1-320): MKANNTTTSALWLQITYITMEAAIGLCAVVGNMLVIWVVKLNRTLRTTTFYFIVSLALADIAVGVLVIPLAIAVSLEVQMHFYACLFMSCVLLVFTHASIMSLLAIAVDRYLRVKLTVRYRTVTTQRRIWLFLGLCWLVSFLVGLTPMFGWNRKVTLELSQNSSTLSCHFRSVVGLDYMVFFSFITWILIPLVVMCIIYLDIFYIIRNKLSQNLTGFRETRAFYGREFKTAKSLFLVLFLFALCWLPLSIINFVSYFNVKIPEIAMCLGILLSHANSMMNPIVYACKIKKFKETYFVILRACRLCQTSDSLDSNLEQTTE
In words: Displacement of specific [125I]AB-MECA binding at rat A3 receptors stably expressed in CHO cells. The note with it: Table 4.

T2 sequence (P30543 whole entry): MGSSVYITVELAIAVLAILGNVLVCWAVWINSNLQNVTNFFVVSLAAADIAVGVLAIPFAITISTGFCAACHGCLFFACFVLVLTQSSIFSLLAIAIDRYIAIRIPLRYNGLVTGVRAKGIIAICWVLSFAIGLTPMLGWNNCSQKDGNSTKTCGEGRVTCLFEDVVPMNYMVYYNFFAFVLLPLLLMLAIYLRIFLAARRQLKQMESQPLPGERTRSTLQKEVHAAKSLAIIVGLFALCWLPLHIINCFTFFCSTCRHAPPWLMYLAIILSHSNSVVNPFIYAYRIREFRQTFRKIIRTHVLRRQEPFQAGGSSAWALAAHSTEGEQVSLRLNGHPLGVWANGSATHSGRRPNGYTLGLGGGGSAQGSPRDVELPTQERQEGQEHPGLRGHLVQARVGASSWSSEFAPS

For `CCOC(=O)C1=C(C)NC(c2ccccc2)=C(C(=O)OCC)C1C(OC)OC` (racemic) [Compound 66, 3,5-Diethyl 2-methyl-6-phenyl-4-(dimethoxymethyl)-1,4-(±)-dihydropyridine-3,5-dicarboxylate], the inhibition at 100 µM on A1 adenosine receptors (Table 3, at 10^−4 M) is 32 ± 5%. In addition, the “rA2A displacement of specific binding (class d)” value (“rA2A displacement” below) on A2A adenosine receptors (Table 3, at 10^−4 M) is “d (10^−4) (Displacement of < 10% of specific binding at the indicated concentration (M).)”. For the same compound, at human A3 receptors (Table 3), the Ki turned out to be 15300 ± 3900 nM and the rA1/hA3 is >5.

As to `CCCOC(=O)c1c(-c2ccccc2)nc(CC)c(C(=O)SCCF)c1CCC` [Compound 15], the rA1/hA3 at human A3 receptors (Table 2) was determined as 150.

In the case of `CCOC(=O)C1=C(C)NC(c2ccccc2)=C(C(=O)OCC)C1C=O` (racemic) [Compound 67, 3,5-Diethyl 2-methyl-6-phenyl-4-formyl-1,4(±)-dihydropyridine-3,5-dicarboxylate], the inhibition at 100 µM at A1 adenosine receptors (Table 3, at 10^−4 M) worked out at 26 ± 6%. Besides, at A2A adenosine receptors (Table 3, at 10^−4 M), the inhibition at 100 µM came to 32 ± 15%. At human A3 receptors (Table 3), the Ki came to 15600 ± 5400 nM and the rA1/hA3 is on record as >6.

Take `CCOC(=O)c1c(C)nc(-c2ccccc2)c(C(=O)OCC)c1C(OC)OC` [Compound 40, 3,5-Diethyl 2-methyl-4-(dimethoxymethyl)-6-phenylpyridine-3,5-dicarboxylate]: the Ki on A1 adenosine receptors (Table 2, compounds 33-58) was found to be 1950 ± 430 nM; at A2A adenosine receptors (Table 2, compounds 33-58) it was 2880 ± 610 nM; on human A3 receptors (Table 2, compounds 33-58), 783 ± 154 nM. Besides, at human A3 receptors (Table 2), the rA1/hA3 is 2.5.

`CCCOC(=O)C1=C(C)NC(c2ccccc2)=C(C(=O)OCC)C1C` (racemic) [Compound 60, 3-Propyl 5-ethyl 2,4-dimethyl-6-phenyl-1,4-(±)-dihydropyridine-3,5-dicarboxylate]: the Ki on A1 adenosine receptors (Table 3) worked out at 1740 ± 3100 nM; on A2A adenosine receptors (Table 3), 28900 ± 4800 nM.

In the case of `CCOC(=O)C1=C(C)NC(c2ccccc2)=C(C(=O)OCC)C1CC` (racemic) [Compound 61, 3,5-Diethyl 2-methyl-4-ethyl-6-phenyl-1,4-(±)-dihydropyridine-3,5-dicarboxylate], on A2A adenosine receptors (Table 3), the inhibitory constant (Ki) was determined as 21800 ± 7800 nM.

Take `CCCOC(=O)c1c(-c2ccccc2)nc(CC)c2c1CCOC2=O` [Compound 29]: the “hA3 displacement of specific binding (class d)” value at human A3 receptors (Table 2, at 10^−4 M) is “d (10^−4) (Displacement of <10% of specific binding at the indicated concentration (M).)”.

As to `CCCc1c(C(=O)SCC)c(CC)nc(-c2ccccc2)c1C(=O)OCC(F)(F)C(F)(F)F` [Compound 24], the rA1/hA3 at human A3 receptors (Table 2) came out at 13.

Regarding `CCOC(=O)C1=C(C)NC(C2CC2)=C(C(=O)OCc2ccccc2)C1C#Cc1ccccc1` (racemic) [Compound 70, 3-Ethyl 5-benzyl 2-methyl-4-phenylethynyl-6-cyclopropyl-1,4-(±)-dihydropyridine-3,5-dicarboxylate], at A1 adenosine receptors (Table 3, at 10^−4 M), the inhibition at 100 µM is 22 ± 1%. On A2A adenosine receptors (Table 3, at 10^−4 M), the “rA2A displacement” value was “d (10^−4) (Displacement of < 10% of specific binding at the indicated concentration (M).)”.

Take `CCCCSC(=O)c1c(CC)nc(-c2cccc(Cl)c2)c(C(=O)OCCC)c1CC` [Compound 7]: the “rA2A displacement” value at A2A adenosine receptors (Table 2, at 10^−4 M) is listed as “d (10^−4) (Displacement of <10% of specific binding at the indicated concentration (M).)”. For the same compound, the rA1/hA3 on human A3 receptors (Table 2) was 7400.

Turning to `CCOC(=O)c1c(C)nc(-c2ccccc2)c(C(=O)OCC)c1C` [Compound 33], the rA1/hA3 on human A3 receptors (Table 2) is given as 1.7.

For `CCOC(=O)c1c(-c2ccccc2)nc(CC)c2c1CCCNC2=O` [Compound 30], on A2A adenosine receptors (Table 2, at 10^−4 M), the “rA2A displacement” value is “d (10^−4) (Displacement of <10% of specific binding at the indicated concentration (M).)”.

As to `CCOC(=O)c1c(C)nc(-c2ccccc2)c(C(=O)OCC)c1C=Cc1ccccc1` [Compound 42], the Ki at A2A adenosine receptors (Table 2, compounds 33-58) stood at 2400 ± 220 nM.

Regarding `CCOC(=O)c1c(-c2ccccc2)nc(CC)c(C(=O)SCC)c1CCCN1C(=O)c2ccccc2C1=O` [Compound 5], the “rA2A displacement” value at A2A adenosine receptors (Table 2, at 10^−4 M) is on record as “d (10^−4) (Displacement of <10% of specific binding at the indicated concentration (M).)”. Further, the “hA3 percentage of specific binding displaced” value at human A3 receptors (Table 2, at 10^−6 M) is 28% (10^−6).

Take `CCOC(=O)c1c(C)nc(-c2ccccc2)c(C(=O)OCc2ccccc2)c1C#Cc1ccccc1` [Compound 43]: the Ki on A1 adenosine receptors (Table 2, compounds 33-58) is 11600 ± 4800 nM; on human A3 receptors (Table 2, compounds 33-58), 2750 ± 780 nM. At A2A adenosine receptors (Table 2, at 10^−4 M), the “rA2A percentage of specific binding displaced” value is given as 43 ± 20% (10^−4). For the same compound, the rA1/hA3 at human A3 receptors (Table 2) is 4.2.

On to `CCCc1c(C(=O)SCC)c(CC)nc(-c2ccccc2)c1C(=O)OCCCF` [Compound 23], for which the rA1/hA3 at human A3 receptors (Table 2) is 630.

For the compound `CCOC(=O)c1c(-c2ccccc2)nc(C)c(C(=O)SCCOC)c1CC` [Compound 37, 5-Ethyl 2-methyl-4-ethyl-3-[2-methoxy-(ethylsulfanylcarbonyl)]-6-phenylpyridine-5-carboxylate], the “rA1 percentage of specific binding displaced” value at A1 adenosine receptors (Table 2, at 10^−4 M) is reported as 36 ± 11% (10^−4). For the same compound, the Ki came to 7980 ± 1360 nM on A2A adenosine receptors (Table 2, compounds 33-58) and 165 ± 12 nM at human A3 receptors (Table 2, compounds 33-58). Further, the rA1/hA3 on human A3 receptors (Table 2) is >500.

On to `CCCOC(=O)c1c(-c2ccccc2)nc(CC)c(C(=O)SCC)c1CC` [Compound 6], for which the “rA2A displacement” value on A2A adenosine receptors (Table 2, at 10^−5 M) is on record as “d (10^−5) (Displacement of <10% of specific binding at the indicated concentration (M).)”. Moreover, the rA1/hA3 on human A3 receptors (Table 2) came out at 8.20.

As to `CCCOC(=O)c1c(-c2ccccc2)nc(CC)c(C(=O)SCCO)c1CCC` [Compound 12], the rA1/hA3 on human A3 receptors (Table 2) was found to be 210.

Consider `CCOC(=O)c1c(C)nc(-c2ccccc2)c(C(=O)OCC)c1C=O` [Compound 41, 3,5-Diethyl 2-methyl-4-formyl-6-phenylpyridine-3,5-dicarboxylate], for which the Ki at A1 adenosine receptors (Table 2, compounds 33-58) turned out to be 9560 ± 4090 nM; at A2A adenosine receptors (Table 2, compounds 33-58), 2560 ± 130 nM.

Regarding `CCOC(=O)C1=C(C)NC(C2CCC2)=C(C(=O)OCc2ccccc2)C1C#Cc1ccccc1` (racemic) [Compound 71, 3-Ethyl 5-benzyl 2-methyl-4-phenylethynyl-6-cyclobutyl-1,4-(±)-dihydropyridine-3,5-dicarboxylate], at A1 adenosine receptors (Table 3, at 10^−4 M), the inhibition at 100 µM was 36 ± 8%. The “rA2A displacement” value at A2A adenosine receptors (Table 3, at 10^−4 M) is listed as “d (10^−4) (Displacement of < 10% of specific binding at the indicated concentration (M).)”.

In the case of `CCCOC(=O)c1c(-c2ccccc2F)nc(CC)c(C(=O)SCC)c1CCC` [Compound 25], the rA1/hA3 at human A3 receptors (Table 2) was 590.

`CCOC(=O)C1=C(CC)NC(c2ccccc2)=C(C(=O)OCC)C1C` (racemic) [Compound 74, 3,5-Diethyl 2-ethyl-6-phenyl-4-methyl-1,4-(±)-dihydropyridine-3,5-dicarboxylate]: the inhibition at 100 µM on A1 adenosine receptors (Table 3, at 10^−4 M) was found to be 20 ± 4%. The “rA2A displacement” value at A2A adenosine receptors (Table 3, at 10^−4 M) is “d (10^−4) (Displacement of < 10% of specific binding at the indicated concentration (M).)”.

Regarding `CCCOC(=O)c1c(-c2ccc(F)cc2)nc(CC)c(C(=O)SCC)c1CCC` [Compound 27], the “rA2A percentage of specific binding displaced” value on A2A adenosine receptors (Table 2, at 10^−4 M) is 50% (10^−4). Also, at human A3 receptors (Table 2), the rA1/hA3 result is reported as “˜400”.

For the compound `CCOC(=O)C1=C(C)NC(C2CCCCC2)=C(C(=O)OCc2ccccc2)C1C#Cc1ccccc1` (racemic) [Compound 73, 3-Ethyl 5-benzyl 2-methyl-4-phenylethynyl-6-cyclohexyl-1,4-(±)-dihydropyridine-3,5-dicarboxylate], the inhibition at 100 µM at A1 adenosine receptors (Table 3, at 10^−4 M) is 22 ± 2%; at A2A adenosine receptors (Table 3, at 10^−4 M) it was 20%.

For the compound `CCCOC(=O)c1c(-c2ccccc2)nc(CC)c(C(=O)SCC(F)(F)F)c1CCC` [Compound 16], the rA1/hA3 at human A3 receptors (Table 2) was found to be 460.

In the case of `CCCOC(=O)c1c(-c2ccccc2)nc(CC)c(C(=O)SCC)c1CC` [Compound 49a, 5-Propyl 2,4-diethyl-3-(ethylsulfanylcarbonyl)-6-phenylpyridine-5-carboxylate], the Ki is 7770 ± 1830 nM on A1 adenosine receptors (Table 2, compounds 33-58); 8.29 nM on human A3 receptors (Table 2, compounds 33-58); 183 ± 33 nM on rat A3 receptors ([125I]AB-MECA, CHO cells, n = 3-5, read-out: rA3 Ki). Moreover, the rA1/hA3 at human A3 receptors (Table 2) is on record as 940. Moreover, on rat A3 receptors (ratio of affinities at rat vs. human A3 receptors), the rA3/hA3 was determined as 22. Besides, the rA1/rA3 at rat A3 receptors (ratio of affinities rat A1 vs rat A3) came out at 42.

For the compound `CCCOC(=O)c1c(-c2cccc(F)c2)nc(CC)c(C(=O)SCC)c1CCC` [Compound 26], the rA1/hA3 on human A3 receptors (Table 2) turned out to be 280.

By inhibition is commonly meant the percentage by which the read-out fell short of the control. A word on the Ki: it is a measure of affinity in units of concentration, obtained from inhibition or displacement.
